From US8030498B2, “Benzoylpyrazole compounds and herbicides containing them” (Ishihara Sangyo Kaisha, Ltd., priority 2005, dated 2011)

How the values were obtained:
velvetleaf = experiment: Test Example 2: soil application on the day after sowing, growth inhibition rate, velvetleaf; assay type: in vivo, Abutilon theophrasti MEDIC.; details: 250 g/ha active ingredient, observed on 19th to 24th day
Description: (§1) Upland field soil was put into a 1/170,000 hectare pot, and seeds of various plants (barnyardgrass, crabgrass, greenfoxtail, redroot pigweed, prickly sida, velvetleaf, rice, wheat, corn and soybean) were sown. On the day after sowing, wettable powders or emulsifiable concentrates of the compounds of the present invention prepared in accordance with a conventional preparation method, were weighed so that the active ingredients became the prescribed amounts, and diluted with water in an amount corresponding to 500 liter per 1 hectare, followed by soil application with a small sprayer. On the 19th to 24th day after the application, the state of growth of the respective plants was visually observed, and the herbicidal effect was evaluated in accordance with a growth inhibition rate (%) of from 0 (equivalent to the non-treated area) to 100% (complete kill).

corn (Zea mays L.) = experiment: Test Example 1: foliar treatment, growth inhibition rate, corn; assay type: in vivo; details: 31 g/ha active ingredient, visually observed 17th to 23rd day after application
Description: (§2) Upland field soil was put into a 1/170,000 hectare pot, and seeds of various plants were sown. When the respective plants reached predetermined leaf stage ((1) barnyardgrass (Echinochloa crus-galli L.); 0.8 to 2.5 leaf stage, (2) crabgrass (Digitaria sanguinalis L.): 0.5 to 3.0 leaf stage, (3) greenfoxtail (Setaria viridis L.): 1.0 to 3.0 leaf stage, (4) redroot pigweed (Amaranthus retroflexus L.): cotyledon stage to 2.0 leaf stage, (5) prickly sida (Sida spinosa L.): cotyledon stage to 1.1 leaf stage, (6) velvetleaf (Abutilon theophrasti MEDIC.): cotyledon stage to 1.5 leaf stage, (7) rice (Oryza sativa L.): 1.0 to 2.5 leaf stage, (8) wheat (Triticum spp.): 1.7 to 3.4 leaf stage, (9) corn (Zea mays L.): 2.0 to 3.5 leaf stage, and (10) soybean (Glycine max Merr.): primary leaf stage to 0.3 leaf stage), wettable powders or emulsifiable concentrates of the compounds of the present invention prepared in accordance with a conventional preparation method, were weighed so that the active ingredients became the prescribed amounts, and diluted with water in an amount corresponding to 500 liter per 1 hectare. 0.1 vol % of an agricultural spreader was further added to the respective diluted liquids, followed by foliar treatment with a small sprayer.
(§3) On the 17th to 23rd day after application, the state of growth of the respective plants was visually observed, and the herbicidal effect was evaluated in accordance with a growth inhibition rate (%) of 0 (equivalent to the non-treated area) to 100% (complete kill).

[1] = tested on: prickly sida (Sida spinosa L.); experiment: Test Example 1: foliar treatment, growth inhibition rate, prickly sida; assay type: in vivo; details: 31 g/ha active ingredient, visually observed 17th to 23rd day after application
Description: as §2, §3

soybean = experiment: Test Example 2: soil application on the day after sowing, growth inhibition rate, soybean; assay type: in vivo, Glycine max Merr.; details: 250 g/ha active ingredient, observed on 19th to 24th day
Description: as §1

[2] = tested on: velvetleaf (Abutilon theophrasti MEDIC.); experiment: Test Example 1: foliar treatment, growth inhibition rate, velvetleaf; assay type: in vivo; details: 31 g/ha active ingredient, visually observed 17th to 23rd day after application
Description: as §2, §3

rice (Oryza sativa L.) = experiment: Test Example 1: foliar treatment, growth inhibition rate, rice; assay type: in vivo; details: 31 g/ha active ingredient, visually observed 17th to 23rd day after application
Description: as §2, §3

wheat (Triticum spp.) = experiment: Test Example 1: foliar treatment, growth inhibition rate, wheat; assay type: in vivo; details: 31 g/ha active ingredient, visually observed 17th to 23rd day after application
Description: as §2, §3

barnyardgrass = experiment: Test Example 2: soil application on the day after sowing, growth inhibition rate, barnyardgrass; assay type: in vivo, Echinochloa crus-galli L.; details: 250 g/ha active ingredient, observed on 19th to 24th day
Description: as §1

greenfoxtail = experiment: Test Example 2: soil application on the day after sowing, growth inhibition rate, greenfoxtail; assay type: in vivo, Setaria viridis L.; details: 250 g/ha active ingredient, observed on 19th to 24th day
Description: as §1

rice = experiment: Test Example 2: soil application on the day after sowing, growth inhibition rate, rice; assay type: in vivo, Oryza sativa L.; details: 250 g/ha active ingredient, observed on 19th to 24th day
Description: as §1

[3] = tested on: greenfoxtail (Setaria viridis L.); experiment: Test Example 1: foliar treatment, growth inhibition rate, greenfoxtail; assay type: in vivo; details: 31 g/ha active ingredient, visually observed 17th to 23rd day after application
Description: as §2, §3

[4] = tested on: soybean (Glycine max Merr.); experiment: Test Example 1: foliar treatment, growth inhibition rate, soybean; assay type: in vivo; details: 31 g/ha active ingredient, visually observed 17th to 23rd day after application
Description: as §2, §3

[5] = tested on: redroot pigweed (Amaranthus retroflexus L.); experiment: Test Example 1: foliar treatment, growth inhibition rate, redroot pigweed; assay type: in vivo; details: 31 g/ha active ingredient, visually observed 17th to 23rd day after application
Description: as §2, §3

crabgrass = experiment: Test Example 2: soil application on the day after sowing, growth inhibition rate, crabgrass; assay type: in vivo, Digitaria sanguinalis L.; details: 250 g/ha active ingredient, observed on 19th to 24th day
Description: as §1

corn = experiment: Test Example 2: soil application on the day after sowing, growth inhibition rate, corn; assay type: in vivo, Zea mays L.; details: 250 g/ha active ingredient, observed on 19th to 24th day
Description: as §1

[6] = tested on: crabgrass (Digitaria sanguinalis L.); experiment: Test Example 1: foliar treatment, growth inhibition rate, crabgrass; assay type: in vivo; details: 31 g/ha active ingredient, visually observed 17th to 23rd day after application
Description: as §2, §3

redroot pigweed = experiment: Test Example 2: soil application on the day after sowing, growth inhibition rate, redroot pigweed; assay type: in vivo, Amaranthus retroflexus L.; details: 250 g/ha active ingredient, observed on 19th to 24th day
Description: as §1

prickly sida = experiment: Test Example 2: soil application on the day after sowing, growth inhibition rate, prickly sida; assay type: in vivo, Sida spinosa L.; details: 250 g/ha active ingredient, observed on 19th to 24th day
Description: as §1

[7] = tested on: barnyardgrass (Echinochloa crus-galli L.); experiment: Test Example 1: foliar treatment, growth inhibition rate, barnyardgrass; assay type: in vivo; details: 31 g/ha active ingredient, visually observed 17th to 23rd day after application
Description: as §2, §3

Row | SMILES | Growth inhibition rate (%) Velvetleaf (velvetleaf) | Growth inhibition rate (%) Corn (corn (Zea mays L.)) | Growth inhibition rate (%) Prickly sida [1] | Growth inhibition rate (%) Soybean (soybean) | Growth inhibition rate (%) Velvetleaf [2] | Growth inhibition rate (%) Rice (rice (Oryza sativa L.)) | Growth inhibition rate (%) Wheat (wheat (Triticum spp.)) | Growth inhibition rate (%) Barnyardgrass (barnyardgrass) | Growth inhibition rate (%) Greenfoxtail (greenfoxtail) | Growth inhibition rate (%) Rice (rice) | Growth inhibition rate (%) Greenfoxtail [3] | Growth inhibition rate (%) Soybean [4] | Growth inhibition rate (%) redroot pigweed [5] | Growth inhibition rate (%) Crabgrass (crabgrass) | Growth inhibition rate (%) Corn (corn) | Growth inhibition rate (%) Crabgrass [6] | Growth inhibition rate (%) redroot pigweed (redroot pigweed) | Growth inhibition rate (%) Prickly sida (prickly sida) | Growth inhibition rate (%) Barnyardgrass [7]
1 | CCSC(=O)Oc1c(C(=O)c2ccc(S(C)(=O)=O)c(OC(C)COC)c2C)cnn1C (centres unmarked) [compound 236] | 0% | 0% | 40% | 0% | 70% | 80% | 0% | 98% | 10% | 70% | 40% | 95% | 90% | 95% | 0% | 50% | 100% | 30% | 60%
2 | CCSC(=O)Oc1c(C(=O)c2ccc(S(C)(=O)=O)c(OCC(C)OC)c2C)cnn1C (centres unmarked) [compound 189] | 100% | 0% | 70% | 10% | 100% | 90% | – | 100% | 100% | 100% | 98% | 98% | – | 100% | 0% | 95% | 100% | 100% | 95%
3 | CCOCc1c(S(C)(=O)=O)ccc(C(=O)c2cnn(C)c2OC(=O)SCC)c1C [compound 73] | 100% | 30% | 70% | – | 98% | 95% | 0% | – | – | – | 100% | 98% | 100% | 100% | 0% | 100% | 100% | – | 100%
4 | CCSC(=O)Oc1c(C(=O)c2ccc(S(C)(=O)=O)c(COCCOC)c2C)cnn1C [compound 76] | 30% | 30% | 65% | – | 75% | 60% | 0% | – | – | – | 80% | 95% | 90% | 100% | 0% | 98% | 90% | – | 98%
5 | CCSC(=O)Oc1c(C(=O)c2ccc(S(C)(=O)=O)c(COC)c2Cl)cnn1C [compound 42] | 70% | 0% | 90% | – | 95% | 90% | 0% | – | – | – | 95% | 95% | 100% | 100% | 0% | 98% | 100% | – | 100%
6 | CCSC(=O)Oc1c(C(=O)c2ccc(S(C)(=O)=O)c(CS(C)(=O)=O)c2C)cnn1C [compound 72] | 30% | 10% | 60% | – | 60% | 50% | 0% | – | – | – | 70% | 70% | 60% | 0% | 0% | 50% | 50% | – | 80%
7 | COCc1c(S(C)(=O)=O)ccc(C(=O)c2cnn(C)c2OC(=O)SC)c1Cl [compound 74] | 70% | 40% | 70% | – | 100% | 95% | 20% | – | – | – | 80% | 98% | 100% | 90% | 0% | 98% | 95% | – | 100%
8 | CCSC(=O)Oc1c(C(=O)c2ccc(S(C)(=O)=O)c(CCOC)c2C)cnn1C [compound 75] | 80% | 40% | 100% | – | 100% | 98% | 0% | – | – | – | 100% | 98% | 100% | 100% | 10% | 100% | 100% | – | 98%
9 | CCSC(=O)Oc1c(C(=O)c2ccc(S(C)(=O)=O)c(OCC(F)(F)F)c2C)cnn1C [compound 79] | 50% | 50% | 75% | – | 98% | 60% | 0% | – | – | – | 98% | 100% | 100% | 90% | 0% | 100% | 90% | – | 100%
10 | COCCOc1c(S(C)(=O)=O)ccc(C(=O)c2cnn(C)c2OC(=O)SC)c1C [compound 233] | 100% | 0% | 60% | 50% | 100% | 80% | 0% | 100% | 100% | 100% | 100% | 100% | – | 100% | 0% | 100% | 100% | 40% | 100%
